The target in test [1] is Mitogen-activated protein kinase kinase kinase kinase 2 (Homo sapiens) (UniProt Q12851). The test is described as follows: Inhibition of recombinant human GCK (1 to 473 residues) assessed as residual activity at 10 uM using myelin basic protein as substrate at 40 mins in presence of [gamma-33ATP] by scintillation counting based radiometry assay relative to control.
Test [2] addresses Dual specificity protein kinase CLK3 (Homo sapiens) (UniProt P49761). Put plainly: Inhibition of recombinant full length human CLK3 assessed as residual activity at 10 uM using ERMRPRKRQGSVRRRV as substrate incubated 40 mins in presence of [gamma-33ATP] by scintillation counting based radiometry assay relative to control.
The target of test [3] is Mitogen-activated protein kinase kinase kinase 7 (Homo sapiens) (UniProt O43318). Put plainly: Inhibition of recombinant human TAK1 (1 to 303 residues) assessed as residual activity at 10 uM using casein as substrate incubated for 40 mins in presence of [gamma33P]ATP by scintillation counting based radiometry assay relative to control.
Test [4] has as its target Epidermal growth factor receptor (Homo sapiens) (UniProt P00533). The test is described as follows: Inhibition of recombinant human EGFR (696 to end residues) assessed as residual activity at 10 uM using poly(Glu, Tyr) 4:1 as substrate at 40 mins in presence of [gamma-33ATP] by scintillation counting based radiometry assay relative to control.
Test [5] concerns the target Serine/threonine-protein kinase WNK2 (Homo sapiens) (UniProt Q9Y3S1). The test is described as follows: Inhibition of recombinant human WNK2 (166 to 489 residues) assessed as residual activity at 10 uM using myelin basic protein as substrate incubated for 40 mins in presence of [gamma33P]ATP by scintillation counting based radiometry assay relative to control.
Test [6] has as its target CDK6/cyclin D3 (Homo sapiens) (UniProt P30281+Q00534). Put plainly: Inhibition of recombinant full length human CDK6/cyclinD3 assessed as residual activity at 10 uM using histone H1 as substrate incubated for 40 mins in presence of [gamma-33ATP] by scintillation counting based radiometry assay relative to control. Type of test: protein-complex assay.
Test [7] has as its target Calcium/calmodulin-dependent protein kinase type II subunit delta (Homo sapiens) (UniProt Q13557). Put plainly: Inhibition of recombinant full length human CaMK2delta assessed as residual activity at 10 uM using […] incubated for 40 mins in presence of [gamma-33ATP] by scintillation counting based radiometry assay relative to control.
Test [8] deals with Transient receptor potential cation channel subfamily M member 7 (Homo sapiens) (UniProt Q96QT4). The test is described as follows: Inhibition of recombinant human CHAK1 (1180 to end residues) assessed as residual activity at 10 uM using myelin basic protein as substrate incubated for 40 mins in presence of [gamma-33ATP] by scintillation counting based radiometry assay relative to control.

The target in test [9] is Tyrosine-protein kinase FRK (Homo sapiens) (UniProt P42685). Put plainly: Inhibition of recombinant human PTK5 (218 to end residues) assessed as residual activity at 10 uM using GGEEEEYFELVKKKK as substrate incubated for 40 mins in presence of [gamma33P]ATP by scintillation counting based radiometry assay relative to control.
Test [10] deals with Dual specificity tyrosine-phosphorylation-regulated kinase 1A (Homo sapiens) (UniProt Q13627). Put plainly: Inhibition of recombinant human DYRK1A assessed as residual activity at 10 uM using RRRFRPASPLRGPP as substrate at 40 mins in presence of [gamma-33ATP] by scintillation counting based radiometry assay relative to control.
The target in test [11] is Death-associated protein kinase 2 (Homo sapiens) (UniProt Q9UIK4). Put plainly: Inhibition of recombinant full length human DAPK2 assessed as residual activity at 10 uM Calmodulin as substrate incubated 40 mins in presence of [gamma-33ATP] by scintillation counting based radiometry assay relative to control.
The target of test [12] is cGMP-dependent protein kinase 1 (Homo sapiens) (UniProt Q13976). Put plainly: Inhibition of recombinant full-length human PKG1beta assessed as residual activity at 10 uM using RRRLSFAEPG as substrate incubated for 40 mins in presence of [gamma33P]ATP by scintillation counting based radiometry assay relative to control.
Sequence of cGMP-dependent protein kinase 1 (Homo sapiens) (Q13976 whole entry): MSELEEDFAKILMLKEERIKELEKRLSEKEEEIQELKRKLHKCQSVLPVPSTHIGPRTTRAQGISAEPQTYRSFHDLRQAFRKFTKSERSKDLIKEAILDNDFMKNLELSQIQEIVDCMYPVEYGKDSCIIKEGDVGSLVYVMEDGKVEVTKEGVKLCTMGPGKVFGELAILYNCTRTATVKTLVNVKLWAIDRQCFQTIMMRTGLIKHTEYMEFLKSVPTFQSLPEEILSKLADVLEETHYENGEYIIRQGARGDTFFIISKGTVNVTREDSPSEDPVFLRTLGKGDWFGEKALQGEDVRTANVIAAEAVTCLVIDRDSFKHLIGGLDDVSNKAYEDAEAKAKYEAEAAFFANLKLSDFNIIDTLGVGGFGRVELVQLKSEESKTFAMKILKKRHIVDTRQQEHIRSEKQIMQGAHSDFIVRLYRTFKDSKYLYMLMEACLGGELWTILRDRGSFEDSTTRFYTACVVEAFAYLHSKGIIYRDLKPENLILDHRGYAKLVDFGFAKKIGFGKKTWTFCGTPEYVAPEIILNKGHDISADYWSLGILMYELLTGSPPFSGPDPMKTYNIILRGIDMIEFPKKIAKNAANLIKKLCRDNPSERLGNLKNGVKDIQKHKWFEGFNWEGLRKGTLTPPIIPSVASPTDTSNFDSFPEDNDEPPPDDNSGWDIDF
Test [13] has as its target Mitogen-activated protein kinase 10 (Homo sapiens) (UniProt P53779). Put plainly: Inhibition of human JNK3 assessed as residual activity at 10 uM using peptide as substrate after 40 mins by [gamma-33ATP] radiometric assay relative to control.
Test [14] concerns the target Serine/threonine-protein kinase/endoribonuclease IRE1 (Homo sapiens) (UniProt O75460). Put plainly: Inhibition of human IRE1 (465 to end residues) assessed as residual activity at 10 uM using myelin basic protein as substrate after 40 mins by [gamma-33ATP] radiometric assay relative to control.
The target in test [15] is MAP kinase-interacting serine/threonine-protein kinase 2 (Homo sapiens) (UniProt Q9HBH9). Put plainly: Inhibition of recombinant human MNK2 assessed as residual activity at 10 uM using myelin basic protein as substrate incubated for 40 mins in presence of [gamma-33ATP by scintillation counting based radiometry assay relative to control.
The target of test [16] is Casein kinase I isoform gamma-1 (Homo sapiens) (UniProt Q9HCP0). Put plainly: Inhibition of recombinant human CK1gamma1 assessed as residual activity at 10 uM using KRRRALS(p)VASLPGL as substrate incubated for 40 mins in presence of [gamma-33ATP] by scintillation counting based radiometry assay relative to control.
For test [17], the target named is Tyrosine-protein kinase Fyn (Homo sapiens) (UniProt P06241). The test is described as follows: Inhibition of recombinant full length human Fyn assessed as residual activity at 10 uM using KVEKIGEGTYGVV as substrate at 40 mins in presence of [gamma-33ATP] by scintillation counting based radiometry assay relative to control.
In test [18] the test system is Mast/stem cell growth factor receptor Kit (Homo sapiens), P10721 [D816H]. The test is described as follows: Inhibition of recombinant human C-Kit D816H mutant (544 to end residues) assessed as residual activity at 10 uM poly(Glu, Tyr) 4:1 as substrate incubated 40 mins in presence of [gamma-33ATP] by scintillation counting based radiometry assay relative to control.
Sequence of Mast/stem cell growth factor receptor Kit (Homo sapiens), P10721 [D816H] (P10721 whole entry D816H): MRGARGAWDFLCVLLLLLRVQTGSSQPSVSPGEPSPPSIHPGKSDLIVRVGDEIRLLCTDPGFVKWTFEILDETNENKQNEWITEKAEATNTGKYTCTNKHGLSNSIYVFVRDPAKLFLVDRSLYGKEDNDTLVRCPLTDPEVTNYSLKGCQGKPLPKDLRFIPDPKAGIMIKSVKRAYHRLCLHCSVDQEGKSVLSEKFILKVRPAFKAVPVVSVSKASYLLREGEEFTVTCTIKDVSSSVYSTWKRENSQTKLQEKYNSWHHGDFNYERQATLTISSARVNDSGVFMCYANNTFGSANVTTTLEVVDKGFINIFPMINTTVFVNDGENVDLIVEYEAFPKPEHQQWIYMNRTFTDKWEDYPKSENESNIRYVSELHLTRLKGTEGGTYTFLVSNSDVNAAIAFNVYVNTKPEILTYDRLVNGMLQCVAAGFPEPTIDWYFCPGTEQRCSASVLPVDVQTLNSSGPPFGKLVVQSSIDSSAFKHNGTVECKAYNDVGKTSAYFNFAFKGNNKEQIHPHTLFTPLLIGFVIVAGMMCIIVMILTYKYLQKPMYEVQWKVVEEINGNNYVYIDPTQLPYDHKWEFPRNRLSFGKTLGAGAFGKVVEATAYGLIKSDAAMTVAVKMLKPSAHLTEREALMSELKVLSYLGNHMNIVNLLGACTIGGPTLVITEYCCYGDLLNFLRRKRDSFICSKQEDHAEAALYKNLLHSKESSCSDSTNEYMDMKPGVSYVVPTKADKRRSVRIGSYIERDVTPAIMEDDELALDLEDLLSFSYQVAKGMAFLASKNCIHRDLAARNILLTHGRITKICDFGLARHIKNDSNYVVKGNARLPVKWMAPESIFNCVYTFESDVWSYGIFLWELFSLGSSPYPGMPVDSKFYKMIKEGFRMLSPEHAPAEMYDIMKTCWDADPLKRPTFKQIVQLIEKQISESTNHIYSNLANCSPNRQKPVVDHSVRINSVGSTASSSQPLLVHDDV

Test [19] concerns Tyrosine-protein kinase ABL1 (Homo sapiens), P00519 [Q252H]. Put plainly: Inhibition of human ABL1 Q252H mutant (27 to end residues) assessed as residual activity at 10 uM using EAIYAAPFAKKK as substrate incubated for 40 mins in presence of [gamma-33ATP] by scintillation counting based radiometry assay relative to control.
Test [20] has as its system Epidermal growth factor receptor (Homo sapiens), P00533 [T790M]. Put plainly: Inhibition of recombinant human EGFR T790M mutant (696 to end residues) assessed as residual activity at 10 uM using poly(Glu, Tyr) 4:1 as substrate at 40 mins in presence of [gamma-33ATP] by scintillation counting based radiometry assay relative to control.
The target of test [21] is Mitogen-activated protein kinase kinase kinase kinase 4 (Homo sapiens) (UniProt O95819). The test is described as follows: Inhibition of recombinant human MAP4K4 (1 to 328 residues) assessed as residual activity at 10 uM using RLGRDKYKTLRQI as substrate incubated for 40 mins in presence of [gamma-33ATP by scintillation counting based radiometry assay relative to control.

Sequence of Serine/threonine-protein kinase WNK2 (Homo sapiens) (Q9Y3S1 whole entry, the tested form may be a part): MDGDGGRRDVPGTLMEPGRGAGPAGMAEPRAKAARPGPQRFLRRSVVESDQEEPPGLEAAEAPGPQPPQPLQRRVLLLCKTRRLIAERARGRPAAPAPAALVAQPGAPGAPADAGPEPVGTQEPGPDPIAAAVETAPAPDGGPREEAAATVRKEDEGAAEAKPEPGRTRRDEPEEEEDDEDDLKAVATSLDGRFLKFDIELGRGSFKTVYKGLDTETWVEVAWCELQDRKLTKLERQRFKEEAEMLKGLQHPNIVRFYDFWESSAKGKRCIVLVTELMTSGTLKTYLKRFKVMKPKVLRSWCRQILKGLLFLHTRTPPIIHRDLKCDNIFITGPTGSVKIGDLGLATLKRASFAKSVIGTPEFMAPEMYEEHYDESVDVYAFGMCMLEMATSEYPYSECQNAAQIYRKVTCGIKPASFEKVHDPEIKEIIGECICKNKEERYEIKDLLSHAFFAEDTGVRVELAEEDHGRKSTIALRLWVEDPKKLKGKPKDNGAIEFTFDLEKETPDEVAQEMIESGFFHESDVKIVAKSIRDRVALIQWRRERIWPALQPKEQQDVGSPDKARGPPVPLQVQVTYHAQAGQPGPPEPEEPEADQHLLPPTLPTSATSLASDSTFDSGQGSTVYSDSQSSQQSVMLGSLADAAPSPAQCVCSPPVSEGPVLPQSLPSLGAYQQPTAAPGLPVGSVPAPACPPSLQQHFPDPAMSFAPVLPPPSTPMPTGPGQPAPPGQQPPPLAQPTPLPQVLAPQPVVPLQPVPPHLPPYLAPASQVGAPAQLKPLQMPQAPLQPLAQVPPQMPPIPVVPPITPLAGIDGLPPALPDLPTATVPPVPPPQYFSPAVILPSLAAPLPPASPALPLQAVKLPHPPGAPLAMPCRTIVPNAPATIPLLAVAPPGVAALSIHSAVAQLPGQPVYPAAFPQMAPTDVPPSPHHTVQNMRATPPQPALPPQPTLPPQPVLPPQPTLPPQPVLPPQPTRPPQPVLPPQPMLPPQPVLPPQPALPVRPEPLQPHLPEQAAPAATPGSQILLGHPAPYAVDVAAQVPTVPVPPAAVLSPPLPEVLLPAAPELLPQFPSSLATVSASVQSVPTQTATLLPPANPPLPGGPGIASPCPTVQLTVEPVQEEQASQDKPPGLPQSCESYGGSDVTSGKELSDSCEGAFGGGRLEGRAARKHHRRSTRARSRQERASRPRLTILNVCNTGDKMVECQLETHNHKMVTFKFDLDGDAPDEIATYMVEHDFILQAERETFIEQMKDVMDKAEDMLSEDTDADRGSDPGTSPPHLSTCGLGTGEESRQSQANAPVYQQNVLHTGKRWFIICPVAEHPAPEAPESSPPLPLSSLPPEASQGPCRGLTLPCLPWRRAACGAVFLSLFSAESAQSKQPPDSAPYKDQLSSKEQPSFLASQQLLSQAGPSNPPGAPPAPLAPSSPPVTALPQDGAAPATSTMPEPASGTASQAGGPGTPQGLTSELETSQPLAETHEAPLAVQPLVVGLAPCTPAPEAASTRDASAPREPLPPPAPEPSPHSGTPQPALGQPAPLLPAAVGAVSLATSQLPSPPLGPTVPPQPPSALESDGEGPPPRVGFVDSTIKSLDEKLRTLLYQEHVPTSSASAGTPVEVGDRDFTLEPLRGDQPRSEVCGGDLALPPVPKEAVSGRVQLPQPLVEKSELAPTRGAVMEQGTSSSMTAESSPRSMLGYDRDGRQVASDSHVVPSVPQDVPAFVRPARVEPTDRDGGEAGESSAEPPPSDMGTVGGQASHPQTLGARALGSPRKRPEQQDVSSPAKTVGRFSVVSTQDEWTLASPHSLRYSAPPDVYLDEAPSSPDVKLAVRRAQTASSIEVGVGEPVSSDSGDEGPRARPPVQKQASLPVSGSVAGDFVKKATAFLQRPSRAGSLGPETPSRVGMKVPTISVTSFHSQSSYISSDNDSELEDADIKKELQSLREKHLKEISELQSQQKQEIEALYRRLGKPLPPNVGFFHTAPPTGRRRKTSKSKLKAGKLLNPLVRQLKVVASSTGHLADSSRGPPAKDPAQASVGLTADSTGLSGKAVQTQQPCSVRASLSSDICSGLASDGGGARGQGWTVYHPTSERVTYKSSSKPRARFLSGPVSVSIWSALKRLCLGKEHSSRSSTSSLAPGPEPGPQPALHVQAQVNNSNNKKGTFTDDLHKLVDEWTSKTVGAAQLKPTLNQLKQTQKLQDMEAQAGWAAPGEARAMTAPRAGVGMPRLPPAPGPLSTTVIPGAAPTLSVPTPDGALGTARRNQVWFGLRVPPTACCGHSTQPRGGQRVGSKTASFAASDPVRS
Sequence of Mitogen-activated protein kinase 10 (Homo sapiens) (P53779 whole entry): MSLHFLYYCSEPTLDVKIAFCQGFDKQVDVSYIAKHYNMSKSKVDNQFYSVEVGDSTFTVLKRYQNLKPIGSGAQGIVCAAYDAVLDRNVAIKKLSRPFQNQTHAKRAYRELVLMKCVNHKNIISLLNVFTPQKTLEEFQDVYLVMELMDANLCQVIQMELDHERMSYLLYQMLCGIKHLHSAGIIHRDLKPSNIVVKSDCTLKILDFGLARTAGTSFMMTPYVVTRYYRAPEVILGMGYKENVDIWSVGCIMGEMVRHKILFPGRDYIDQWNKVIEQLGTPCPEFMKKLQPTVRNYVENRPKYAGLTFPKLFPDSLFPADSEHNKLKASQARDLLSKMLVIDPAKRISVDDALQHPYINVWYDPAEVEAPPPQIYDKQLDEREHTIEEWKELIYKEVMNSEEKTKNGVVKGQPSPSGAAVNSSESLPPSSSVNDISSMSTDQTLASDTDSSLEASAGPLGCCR
Sequence of Dual specificity protein kinase CLK3 (Homo sapiens) (P49761 whole entry, looked up, the tested form may be a part): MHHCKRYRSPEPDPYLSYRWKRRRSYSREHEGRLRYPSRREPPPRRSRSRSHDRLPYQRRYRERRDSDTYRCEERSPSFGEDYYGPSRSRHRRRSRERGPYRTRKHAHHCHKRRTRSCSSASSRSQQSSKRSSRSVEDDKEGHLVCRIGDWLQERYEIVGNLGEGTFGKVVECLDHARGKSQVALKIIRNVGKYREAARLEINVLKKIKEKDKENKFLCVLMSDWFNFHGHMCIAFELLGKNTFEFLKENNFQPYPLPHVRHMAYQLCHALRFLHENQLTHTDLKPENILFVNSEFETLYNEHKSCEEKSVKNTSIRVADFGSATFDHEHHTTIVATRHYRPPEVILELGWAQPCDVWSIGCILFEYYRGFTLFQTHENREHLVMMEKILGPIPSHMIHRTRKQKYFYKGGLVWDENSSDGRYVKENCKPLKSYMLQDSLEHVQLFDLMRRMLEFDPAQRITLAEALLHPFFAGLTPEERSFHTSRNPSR

As for `C[C@@H](c1ccccc1)n1nnc2cnc3ccc(-c4cnc5[nH]ccc5c4)cc3c21`, the Activity in [1] was determined as 75%; in [2], 66%; in test [3], 91%; in test [4] it was 90%; in test [5], 85%; in test [6], 92%. Besides, the Activity in [7] is 68%; in test [8], 66%; in test [9], 7%; in [10], 63%; in test [11], 89%; in test [12] it was 66%. Moreover, the Activity turned out to be 47% in [13]; 86% in test [14]; 84% in test [15]; 48% in test [16]; 8% in test [17]; 8% in test [18]. Besides, the Activity in [19] was 1%; in test [20], 59%; in test [21] it was 34%.
